Test results published in PubChem BioAssay AID2060901 (Molecular Pharmacology Branch, DTP, NCI, 2025).

Tested on: 422866-222-R5-J1-PDC complex spheroids viability
Experiment: Anticancer human tumor 422866-222-R5-J1-PDC patient-derived pancreatic adenocarcinoma cell line growth inhibition [RAS]
Settings: for IC50: curve of first compound; for viability, T/C: stronger effect = lower value
Method in brief: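 Agents were tested in combination matrices in half-log decrements from a top concentration at or near clinical Cmax (10 microM if undetermined). Targets were multi-cell spheroids of tumour lines plus HUVEC and MSC stromal cells.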
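Also: spheroids exposed to compounds for 7 days.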
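For viability, T/C in this document: 100% = DMSO vehicle control viability.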

For `CCc1c2c(nc3ccc(O)cc13)-c1cc3c(c(=O)n1C2)COC(=O)[C@]3(O)CC` + CCn1c(-c2cc(N3CCN(C)CC3)cnc2C(C)OC)c2c3cc(ccc31)-c1csc(n1)CC(NC(=O)C1CC1C)C(=O)N1CCCC(N1)C(=O)OCC(C)(C)C2, the IC50 (second compound 0.000949 µM) was < 0.949 nM, the IC50 (second compound 0.003 µM) was < 0.949 nM and the IC50 (second compound 0.00949 µM) was < 0.949 nM. For the same compound, the IC50 (second compound 0.03 µM) was < 0.949 nM, the IC50 (second compound 0.0949 µM) was < 0.949 nM and the IC50 (second compound 0.3 µM) was < 0.949 nM. For the same compound, the viability, T/C (second compound 0.000949 µM, first compound 0.000949 µM) was 25.3%, the viability, T/C (second compound 0.000949 µM, first compound 0.003 µM) was 20.3% and the viability, T/C (second compound 0.000949 µM, first compound 0.00949 µM) was 21.6%. For the same compound, the viability, T/C (second compound 0.000949 µM, first compound 0.03 µM) was 19.5%, the viability, T/C (second compound 0.000949 µM, first compound 0.0949 µM) was 17.7% and the viability, T/C (second compound 0.000949 µM, first compound 0.3 µM) was 12.6%. For the same compound, the viability, T/C (second compound 0.003 µM, first compound 0.000949 µM) was 22.5%, the viability, T/C (second compound 0.003 µM, first compound 0.003 µM) was 17% and the viability, T/C (second compound 0.003 µM, first compound 0.00949 µM) was 15.4%. The viability, T/C (second compound 0.003 µM, first compound 0.03 µM) was 16.7%, the viability, T/C (second compound 0.003 µM, first compound 0.0949 µM) was 14.1% and the viability, T/C (second compound 0.003 µM, first compound 0.3 µM) was 8.32%. The viability, T/C (second compound 0.00949 µM, first compound 0.000949 µM) was 18.9%, the viability, T/C (second compound 0.00949 µM, first compound 0.003 µM) was 14.7% and the viability, T/C (second compound 0.00949 µM, first compound 0.00949 µM) was 13.8%. It also gave a viability, T/C (second compound 0.00949 µM, first compound 0.03 µM) of 13.2%, a viability, T/C (second compound 0.00949 µM, first compound 0.0949 µM) of 11.3% and a viability, T/C (second compound 0.00949 µM, first compound 0.3 µM) of 7.61%. It also gave a viability, T/C (second compound 0.03 µM, first compound 0.000949 µM) of 16.6%, a viability, T/C (second compound 0.03 µM, first compound 0.003 µM) of 15.6% and a viability, T/C (second compound 0.03 µM, first compound 0.00949 µM) of 14.6%. For the same compound, the viability, T/C (second compound 0.03 µM, first compound 0.03 µM) was 12.8%, the viability, T/C (second compound 0.03 µM, first compound 0.0949 µM) was 10% and the viability, T/C (second compound 0.03 µM, first compound 0.3 µM) was 6.17%. The viability, T/C (second compound 0.0949 µM, first compound 0.000949 µM) was 17%, the viability, T/C (second compound 0.0949 µM, first compound 0.003 µM) was 15% and the viability, T/C (second compound 0.0949 µM, first compound 0.00949 µM) was 13.8%. For the same compound, the viability, T/C (second compound 0.0949 µM, first compound 0.03 µM) was 12.5%, the viability, T/C (second compound 0.0949 µM, first compound 0.0949 µM) was 9.66% and the viability, T/C (second compound 0.0949 µM, first compound 0.3 µM) was 6.78%. It also gave a viability, T/C (second compound 0.3 µM, first compound 0.000949 µM) of 16.2%, a viability, T/C (second compound 0.3 µM, first compound 0.003 µM) of 15.7% and a viability, T/C (second compound 0.3 µM, first compound 0.00949 µM) of 16.8%. For the same compound, the viability, T/C (second compound 0.3 µM, first compound 0.03 µM) was 12.8%, the viability, T/C (second compound 0.3 µM, first compound 0.0949 µM) was 10.1% and the viability, T/C (second compound 0.3 µM, first compound 0.3 µM) was 5.7%.

For `C=CC(=O)Nc1cc(Nc2nccc(-c3cn(C)c4ccccc34)n2)c(OC)cc1N(C)CCN(C)C` + CCn1c(-c2cccnc2C(C)OC)c2c3cc(ccc31)N1CCOC(CC(NC(=O)C(C(C)C)N(C)C(=O)C3(F)CCN(C(=O)C#CC(C)(C)N(C)C)CC3)C(=O)N3CCCC(N3)C(=O)OCC(C)(C)C2)C1, the IC50 (second compound 0.000949 µM) was < 3.16 nM, the IC50 (second compound 0.003 µM) was < 3.16 nM and the IC50 (second compound 0.00949 µM) was < 3.16 nM. The IC50 (second compound 0.03 µM) was < 3.16 nM, the IC50 (second compound 0.0949 µM) was < 3.16 nM and the IC50 (second compound 0.3 µM) was < 3.16 nM. It also gave a viability, T/C (second compound 0.000949 µM, first compound 0.00316 µM) of 26.2%, a viability, T/C (second compound 0.000949 µM, first compound 0.01 µM) of 27.5% and a viability, T/C (second compound 0.000949 µM, first compound 0.0316 µM) of 26.2%. The viability, T/C (second compound 0.000949 µM, first compound 0.1 µM) was 23%, the viability, T/C (second compound 0.000949 µM, first compound 0.316 µM) was 19.7% and the viability, T/C (second compound 0.000949 µM, first compound 1 µM) was 22.6%. For the same compound, the viability, T/C (second compound 0.003 µM, first compound 0.00316 µM) was 25%, the viability, T/C (second compound 0.003 µM, first compound 0.01 µM) was 19.2% and the viability, T/C (second compound 0.003 µM, first compound 0.0316 µM) was 23.7%. It also gave a viability, T/C (second compound 0.003 µM, first compound 0.1 µM) of 16.8%, a viability, T/C (second compound 0.003 µM, first compound 0.316 µM) of 14.6% and a viability, T/C (second compound 0.003 µM, first compound 1 µM) of 15.2%. For the same compound, the viability, T/C (second compound 0.00949 µM, first compound 0.00316 µM) was 21.9%, the viability, T/C (second compound 0.00949 µM, first compound 0.01 µM) was 21.4% and the viability, T/C (second compound 0.00949 µM, first compound 0.0316 µM) was 17.2%. It also gave a viability, T/C (second compound 0.00949 µM, first compound 0.1 µM) of 16.4%, a viability, T/C (second compound 0.00949 µM, first compound 0.316 µM) of 13.8% and a viability, T/C (second compound 0.00949 µM, first compound 1 µM) of 16.4%. It also gave a viability, T/C (second compound 0.03 µM, first compound 0.00316 µM) of 29.2%, a viability, T/C (second compound 0.03 µM, first compound 0.01 µM) of 19.8% and a viability, T/C (second compound 0.03 µM, first compound 0.0316 µM) of 14.6%. For the same compound, the viability, T/C (second compound 0.03 µM, first compound 0.1 µM) was 15.8%, the viability, T/C (second compound 0.03 µM, first compound 0.316 µM) was 15.9% and the viability, T/C (second compound 0.03 µM, first compound 1 µM) was 15.4%. It also gave a viability, T/C (second compound 0.0949 µM, first compound 0.00316 µM) of 18.7%, a viability, T/C (second compound 0.0949 µM, first compound 0.01 µM) of 16.2% and a viability, T/C (second compound 0.0949 µM, first compound 0.0316 µM) of 15.5%. For the same compound, the viability, T/C (second compound 0.0949 µM, first compound 0.1 µM) was 11.9%, the viability, T/C (second compound 0.0949 µM, first compound 0.316 µM) was 13.5% and the viability, T/C (second compound 0.0949 µM, first compound 1 µM) was 13.1%. The viability, T/C (second compound 0.3 µM, first compound 0.00316 µM) was 15.2%, the viability, T/C (second compound 0.3 µM, first compound 0.01 µM) was 15.7% and the viability, T/C (second compound 0.3 µM, first compound 0.0316 µM) was 17.4%. For the same compound, the viability, T/C (second compound 0.3 µM, first compound 0.1 µM) was 13.8%, the viability, T/C (second compound 0.3 µM, first compound 0.316 µM) was 13.7% and the viability, T/C (second compound 0.3 µM, first compound 1 µM) was 13.2%.
